Laboratory results as given in patent US9834542B2, “LXR modulators” (BRISTOL-MYERS SQUIBB COMPANY, priority 2013, dated 2017).
pEC50: −log10 of the molar value.

Target: T1, LXRβ (Homo sapiens, UniProt P55055)
T1 construct: Co-transfection expression plasmids, comprising full-length LXRα (pCMX-h LXRα[…] or LXRβ (pCMX-hLXRβ)); expressed in transfected cells; host or cells: CV-1 African Green Monkey Kidney Cells
T1 sequence (P55055 1-460): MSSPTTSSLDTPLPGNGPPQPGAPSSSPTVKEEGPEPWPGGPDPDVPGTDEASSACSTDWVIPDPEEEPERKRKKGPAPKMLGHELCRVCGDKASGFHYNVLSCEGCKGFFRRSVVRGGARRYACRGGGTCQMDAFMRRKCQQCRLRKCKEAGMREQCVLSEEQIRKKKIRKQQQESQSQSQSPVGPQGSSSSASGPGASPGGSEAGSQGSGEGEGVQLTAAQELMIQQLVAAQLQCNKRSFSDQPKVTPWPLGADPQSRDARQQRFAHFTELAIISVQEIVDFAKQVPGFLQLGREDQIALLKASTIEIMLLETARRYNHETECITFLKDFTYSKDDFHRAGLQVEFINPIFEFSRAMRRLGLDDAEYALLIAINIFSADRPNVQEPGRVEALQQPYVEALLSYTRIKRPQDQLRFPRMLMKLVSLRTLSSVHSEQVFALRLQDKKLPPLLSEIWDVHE
T1 sequence (P19793 1-462 partner): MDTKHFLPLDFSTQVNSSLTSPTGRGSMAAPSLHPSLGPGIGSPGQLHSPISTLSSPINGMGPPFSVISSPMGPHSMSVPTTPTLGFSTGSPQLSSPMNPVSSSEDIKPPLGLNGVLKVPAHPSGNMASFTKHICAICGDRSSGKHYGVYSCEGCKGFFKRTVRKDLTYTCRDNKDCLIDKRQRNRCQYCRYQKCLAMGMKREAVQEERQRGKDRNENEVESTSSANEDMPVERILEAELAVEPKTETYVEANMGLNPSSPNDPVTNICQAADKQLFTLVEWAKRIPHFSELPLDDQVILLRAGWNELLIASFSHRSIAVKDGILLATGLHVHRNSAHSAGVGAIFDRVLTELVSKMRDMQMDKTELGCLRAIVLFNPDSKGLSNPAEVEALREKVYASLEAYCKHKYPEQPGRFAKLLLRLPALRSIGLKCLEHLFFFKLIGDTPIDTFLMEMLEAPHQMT
Experiment: Co-transfection assay (LXRE luciferase reporter), LXRβ
Type: cell-based
Details: for pEC50: CV-1 cells transfected with pCMX-hLXRβ and LXREx1-Tk-Luciferase, 20 hours incubation; for Emax: LXRβ co-transfection, relative to high control 1-(2,4-difluorobenzyl)-2-oxo-6-(4-phenoxyphenyl)-4-(trifluoromethyl)-1,2-dihydropyridine-3-carbonitrile, read-out: % Efficacy
Outline: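 Luciferase signal from an LXREx1-Tk reporter was measured after transfected CV-1 cells (full-length hLXRβ, endogenous RXR) were treated with compounds for 20 h at 37 °C, ≤0.5% DMSO. EC50 came from four-parameter fits of 11-point ½-log curves; % efficacy versus a reference agonist maximum.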

| pEC50 | Emax [%] | SMILES |
| --- | --- | --- |
| 6.67 | 102 | Cc1nc(C(F)F)cn1-c1ccc(-c2cccc(S(C)(=O)=O)c2)cc1-c1cnnn1Cc1ccc(Cl)cc1 [Example 245, 1-(4-chlorobenzyl)-5-(4-(4-(difluoromethyl)-2-methyl-1H-imidazol-1-yl)-3′-(methylsulfonyl)-[1,1′-biphenyl]-3-yl)-1H-1,2,3-triazole] |
| 7.11 | 89 | Cc1nc(-c2cc(-c3cccc(S(C)(=O)=O)c3)ccc2-n2cc(C(F)(F)F)nc2C)c(-c2ccc(OC(F)(F)F)cc2)o1 [Example 366, 2-methyl-4-{3′-(methylsulfonyl)-4-[2-methyl-4-(trifluoromethyl)-1H-imidazol-1-yl]biphenyl-3-yl}-5-{4-[(trifluoromethyl)oxy]phenyl}-1,3-oxazole] |
| 6.54 | 91 | Cc1nc(C(F)(F)F)cn1-c1ccc(-c2cc(F)c(CO)c(S(C)(=O)=O)c2)cc1-n1nncc1-c1ccc2occc2c1 [Example 216, (3′-(5-(benzofuran-5-yl)-1H-1,2,3-triazol-1-yl)-3-fluoro-4′-(2-methyl-4-(trifluoromethyl)-1H-imidazol-1-yl)-5-(methylsulfonyl)-[1,1′-biphenyl]-4-yl)methanol] |
| 6.18 | 94 | Cc1nc(C(F)(F)F)cn1-c1ccc(-c2cccc(S(C)(=O)=O)c2)cc1-n1nncc1-c1ccc(F)c(F)c1 [Example 34, 5-(3,4-difluorophenyl)-1-{3′-(methylsulfonyl)-4-[2-methyl-4-(trifluoromethyl)-1H-imidazol-1-yl]biphenyl-3-yl}-1H-1,2,3-triazole] |
| 5.97 | 35 | Cc1nc(C(N)=O)cn1-c1ccc(-c2cccc(S(C)(=O)=O)c2)cc1-c1nc(C2CC2)oc1-c1ccc2c(c1)OC(F)(F)O2 [Example 489, 1-(3-(2-cyclopropyl-5-(2,2-difluorobenzo[d][1,3]dioxol-5-yl)oxazol-4-yl)-3′-(methylsulfonyl)biphenyl-4-yl)-2-methyl-1H-imidazole-4-carboxamide] |
| 6.25 | 89 | Cc1nc(C(F)(F)F)cn1-c1ccc(-c2cccc(S(C)(=O)=O)c2)cc1-n1nncc1-c1ccc(CF)cc1 [Example 4, 5-[4-(fluoromethyl)phenyl]-1-{3′-(methylsulfonyl)-4-[2-methyl-4-(trifluoromethyl)-1H-imidazol-1-yl]biphenyl-3-yl}-1H-1,2,3-triazole] |
| 6.74 | 89 | Cc1nc(C(F)(F)F)cn1-c1ccc(-c2cccc(S(C)(=O)=O)c2)cc1-c1ocnc1-c1ccc(OC(F)(F)F)cc1 [Example 361, 5-{3′-(methylsulfonyl)-4-[2-methyl-4-(trifluoromethyl)-1H-imidazol-1-yl]biphenyl-3-yl}-4-{4-[(trifluoromethyl)oxy]phenyl}-1,3-oxazole] |
| 5.80 | 61 | Cc1nc(C(F)F)cn1-c1ccc(-c2cccc(S(C)(=O)=O)c2)cc1-n1nncc1-c1ccc(Cl)cc1Cl [Example 163, 5-(2,4-dichlorophenyl)-1-{4-[4-(difluoromethyl)-2-methyl-1H-imidazol-1-yl]-3′-(methylsulfonyl)biphenyl-3-yl}-1H-1,2,3-triazole] |
| 6.45 | 75 | Cc1nc(C(F)(F)F)cn1-c1ccc(-c2cc(F)c(CO)c(S(C)(=O)=O)c2)cc1-c1ccnn1-c1ccc(Cl)nc1 [Example 297, (3′-(1-(6-chloropyridin-3-yl)-1H-pyrazol-5-yl)-3-fluoro-4′-(2-methyl-4-(trifluoromethyl)-1H-imidazol-1-yl)-5-(methylsulfonyl)biphenyl-4-yl)methanol] |
| 7.08 | 43 | Cc1nc(-c2cc(-c3cc(F)c(CO)c(S(C)(=O)=O)c3)ccc2-n2cc(C(F)(F)F)nc2C)c(-c2ccccc2OC(F)F)o1 [Example 548, (3′-(5-(2-(difluoromethoxy)phenyl)-2-methyloxazol-4-yl)-3-fluoro-4′-(2-methyl-4-(trifluoromethyl)-1H-imidazol-1-yl)-5-(methylsulfonyl)-[1,1′-biphenyl]-4-yl)methanol] |
| 6.33 | 88 | Cc1nc(C(C)(F)F)cn1-c1ccc(-c2cc(F)c(CO)c(S(C)(=O)=O)c2)cc1-n1nncc1-c1ccc(OC(F)(F)F)cc1 [Example 174, {4′-[4-(1,1-difluoroethyl)-2-methyl-1H-imidazol-1-yl]-3-fluoro-5-(methylsulfonyl)-3′-(5-{4-[(trifluoromethyl)oxy]phenyl}-1H-1,2,3-triazol-1-yl)biphenyl-4-yl}methanol] |
| 6.99 | 84 | Cc1nc(-c2cc(-c3cccc(S(C)(=O)=O)c3)ccc2-n2cc(C(F)(F)F)nc2C)c(-c2ccc(Cl)cc2)o1 [Example 375, 5-(4-chlorophenyl)-2-methyl-4-{3′-(methylsulfonyl)-4-[2-methyl-4-(trifluoromethyl)-1H-imidazol-1-yl]biphenyl-3-yl}-1,3-oxazole] |
| 6.90 | 97 | Cc1nc(C(F)(F)F)cn1-c1ccc(-c2cccc(S(C)(=O)=O)c2)cc1-n1nncc1-c1ccc(Cl)c(Cl)c1 [Example 75, 5-(3,4-dichlorophenyl)-1-{3′-(methylsulfonyl)-4-[2-methyl-4-(trifluoromethyl)-1H-imidazol-1-yl]biphenyl-3-yl}-1H-1,2,3-triazole] |
| 6.46 | 49 | Cc1nc(C(F)(F)F)cn1-c1ccc(-c2cc(F)c(CO)c(S(C)(=O)=O)c2)cc1-c1nc(C2CC2)cn1-c1ccc(Cl)cc1 [Example 647, (3′-(1-(4-chlorophenyl)-4-cyclopropyl-1H-imidazol-2-yl)-3-fluoro-4′-(2-methyl-4-(trifluoromethyl)-1H-imidazol-1-yl)-5-(methylsulfonyl)-[1,1′-biphenyl]-4-yl)methanol] |
| 5.98 | 61 | Cc1nc(C(F)(F)F)cn1-c1ccc(-c2cccc(S(C)(=O)=O)c2)cc1-n1nncc1Cc1ccc(OC(F)(F)F)cc1 [Example 118, 1-{3′-(methylsulfonyl)-4-[2-methyl-4-(trifluoromethyl)-1H-imidazol-1-yl]biphenyl-3-yl}-5-({4-[(trifluoromethyl)oxy]phen-yl}methyl)-1H-1,2,3-triazole] |
| 6.83 | 84 | Cc1nc(C(F)(F)F)cn1-c1ccc(-c2cccc(S(C)(=O)=O)c2)cc1-n1nncc1-c1ccc(OC(F)(F)F)c(F)c1 [Example 54, 5-{3-fluoro-4-[(trifluoromethyl)oxy]phenyl)-1-{3′-(methylsulfonyl)-4-[2-methyl-4-(trifluoromethyl)-1H-imidazol-1-yl]biphenyl-3-yl}-1H-1,2,3-triazole] |
| 5.98 | 26 | Cc1nc(-c2cc(-c3cc(F)c(CO)c(S(C)(=O)=O)c3)ccc2-n2cc(C(C)(C)O)nc2C)c(-c2ccc3c(c2)OC(F)(F)O3)o1 [Example 370, 2-(1-(3-(5-(2,2-difluorobenzo[d][1,3]dioxol-5-yl)-2-methyloxazol-4-yl)-3′-fluoro-4′-(hydroxymethyl)-5′-(methylsulfonyl)biphenyl-4-yl)-2-methyl-1H-imidazol-4-yl)propan-2-ol] |
| 6.10 | 81 | Cc1nc(C(F)(F)F)cn1-c1ccc(-c2cc(F)c(CO)c(S(C)(=O)=O)c2)cc1-c1oc(CCO)nc1-c1ccc2c(c1)OC(F)(F)O2 [Example 621, 2-(4-(2,2-difluorobenzo[d][1,3]dioxol-5-yl)-5-(3′-fluoro-4′-(hydroxymethyl)-4-(2-methyl-4-(trifluoromethyl)-1H-imidazol-1-yl)-5′-(methylsulfonyl)-[1,1′-biphenyl]-3-yl)oxazol-2-yl)ethanol] |
| 6.51 | 98 | Cc1nc(C(F)(F)F)cn1-c1ccc(-c2cccc(S(C)(=O)=O)c2)cc1-n1nncc1-c1ccc(Cl)cc1 [Example 66, 5-(4-chlorophenyl)-1-{3′-(methylsulfonyl)-4-[2-methyl-4-(trifluoromethyl)-1H-imidazol-1-yl]biphenyl-3-yl}-1H-1,2,3-triazole] |
| 6.77 | 81 | CCC(F)(F)c1cn(-c2ccc(-c3cc(F)c(CO)c(S(C)(=O)=O)c3)cc2-n2nncc2-c2ccc(OC(F)(F)F)cc2)c(C)n1 [Example 186, {4′-[4-(1,1-difluoropropyl)-2-methyl-1H-imidazol-1-yl]-3-fluoro-5-(methylsulfonyl)-3′-(5-{4-[(trifluoromethyl)oxy]phenyl}-1H-1,2,3-txiazol-1-yl)biphenyl-4-yl}methanol] |
